From patent publication US12558428B2, “Heterobifunctional compounds and their use in treating disease” (Halda Therapeutics OpCo, Inc., priority 2024, dated 2026)
Where two headings read alike, the source gives them in different places.

Assays:
Format in all cases: cell-based
[1] = tested on: MCF7 cells (ATCC #HTB-22); assay: Cellular growth inhibition assay, MCF7 cells purchased from ATCC; settings: Table 8-A, MCF7 cells purchased from ATCC, six days, CellTiter-Glo, read-out: GI50
Method in brief: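 GI50 values come from a four-parameter fit of CellTiter-Glo 2.0 luminescence after six days of compound exposure at 37° C. Seeding density depended on the source: 225 cells/well for ECACC MCF7, 1,500 for ATCC. Medium was RPMI 1640 with 10% FBS and 0.2 U/ml insulin.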

[2] = tested on: T-Rex 293 cells having increased expression of estrogen receptor alpha protein; assay: Cellular growth inhibition assay, T-Rex 293 cells, (+) doxycycline; settings: 72 hours
Method in brief: (§1)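 Cells of an inducible ERα-expressing T-Rex 293 clone are seeded in charcoal-dextran FBS medium with or without 3 ng/mL doxycycline, then treated after 24 h with compound dilutions (0.5% DMSO) for 72 h. Growth inhibition is measured by CellTiter-Glo luminescence and expressed as GI50.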

[3] = tested on: T-Rex 293 cells lacking increased expression of estrogen receptor alpha protein; assay: Cellular growth inhibition assay, T-Rex 293 cells, (−) doxycycline; settings: 72 hours
Method in brief: as §1

[4] = T-REx-293, 72 h, Table 7-A, T-Rex 293 cells with doxycycline (increased ERα expression), CellTiter-Glo, read-out: (+) Dox GI50
[5] = T-REx-293, 72 h, Table 7-A, T-Rex 293 cells without doxycycline (lacking increased ERα expression), CellTiter-Glo, read-out: (−) Dox GI50

GI50 [1]	GI50 ([1]; Homo sapiens, MCF7, 144 h)	SMILES	GI50 ([2]; Table 7-A, T-Rex 293 cells with doxycycline (increased ERα expression), CellTiter-Glo, read-out: (+) Dox GI50)	GI50 ([3]; Table 7-A, T-Rex 293 cells without doxycycline (lacking increased ERα expression), CellTiter-Glo, read-out: (−) Dox GI50)	GI50 [2, 4]	GI50 [3, 5]	GI50 ([2]; T-REx-293, 72 h, T-Rex 293 cells with doxycycline-induced ERα expression, CellTiter-Glo 2.0, read-out: (+) Dox TRex ERa (GI50))	GI50 ([3]; T-REx-293, 72 h, T-Rex 293 cells without doxycycline, CellTiter-Glo 2.0, read-out: (−) Dox TRex ERa (GI50))
0.05 to 0.5 µM		Cc1sc2c(c1C)C(c1ccc(NCCN3CCN(CCOc4ccc([C@@H]5c6ccc(O)cc6CC[C@@H]5c5ccccc5)cc4)CC3)cc1)=NC(Cc1ncco1)c1nnc(C)n1-2 (stereo partly drawn) [III-32]	< 0.05 µM	0.05 to 0.5 µM				
	0.05 to 0.5 µM	Cc1sc2c(c1C)C(c1ccc(N3CCN(CC4CCN(c5ncc([C@@H]6c7ccc(O)cc7CC[C@@H]6c6ccccc6)cn5)CC4)CC3)cc1)=N[C@@H](C)c1nnc(C)n1-2 [III-123]			< 0.05 µM	0.5 to 2.5 µM		
	0.05 to 0.5 µM	Cc1sc2c(c1C)C(c1ccc(N3CCC(O)(CN4CCN(c5cc(F)c([C@@H]6c7ccc(O)cc7CC[C@@H]6c6ccccc6)c(F)c5)CC4)CC3)cc1)=N[C@H](Cc1ncco1)c1nnc(C)n1-2 [III-197]			< 0.05 µM	0.05 to 0.5 µM		
	< 0.05 µM	Cc1sc2c(c1C)C(c1ccc(N3CC(CN4CC(CN5CC(c6ccc(C7=C(c8ccccc8)CCCc8cc(C(=O)O)ccc87)cc6)C5)C4)C3)cc1)=N[C@@H](C)c1nnc(C)n1-2 [IV-22]			< 0.05 µM	0.05 to 0.5 µM		
	0.5 to 2.5 µM	Cc1sc2c(c1C)C(c1ccc(N3CCN(CC4CCN(c5ncc([C@H]6c7ccc(O)cc7CC[C@H]6c6ccccc6)cn5)CC4)CC3)cc1)=N[C@@H](C)c1nnc(C)n1-2 [III-122]			0.5 to 2.5 µM	> 2.5 µM		
	0.05 to 0.5 µM	Cc1sc2c(c1C)C(c1ccc(N3CC(CN4CCN(CC5CN(c6ccc([C@H]7c8ccc(O)cc8CC[C@H]7c7ccccc7)cc6)C5)CC4)C3)cc1)=N[C@@H](C)c1nnc(C)n1-2 [III-147]			0.05 to 0.5 µM	0.05 to 0.5 µM		
	0.05 to 0.5 µM	Cc1sc2c(c1C)C(c1ccc(N3CC(CN4CC(CC5CN(c6ccc([C@@H]7c8ccc(O)cc8CC[C@@H]7c7ccccc7)cc6)C5)C4)C3)cc1)=N[C@@H](C)c1nnc(C)n1-2 [III-220]			< 0.05 µM	0.05 to 0.5 µM		
	< 0.05 µM	Cc1sc2c(c1C)C(c1ccc(N3CC(CC4(O)CCN(CC5CN(c6ccc(C7=C(c8ccccc8)CCCc8cc(C(=O)O)ccc87)cc6)C5)CC4)C3)cc1)=N[C@@H](C)c1nnc(C)n1-2 [IV-29]			< 0.05 µM	0.05 to 0.5 µM		
	< 0.05 µM	Cc1sc2c(c1C)C(c1ccc(N3CC4(CC(CN5CCN(c6cc(F)c([C@@H]7c8ccc(O)cc8CC[C@@H]7c7ccccc7)c(F)c6)CC5)C4)C3)cc1)=N[C@@H](C)c1nnc(C)n1-2 [III-277]			< 0.05 µM	0.5 to 2.5 µM		
	0.05 to 0.5 µM	Cc1sc2c(c1C)C(c1ccc(N3CC4(CCN(CC5CCN(c6ccc([C@@H]7c8ccc(O)cc8CC[C@@H]7c7ccccc7)cc6)CC5)CC4)C3)cc1)=N[C@@H](C)c1nnc(C)n1-2 [III-12]			< 0.05 µM	0.5 to 2.5 µM		
	< 0.05 µM	Cc1sc2c(c1C)C(c1ccc(N3CCC(O)(CN4CCN(c5ccc(C6=C(c7ccccc7Cl)CCCc7cc(C(=O)O)ccc76)c(F)c5)CC4)CC3)cc1)=N[C@@H](C)c1nnc(C)n1-2 [IV-34]			< 0.05 µM	0.05 to 0.5 µM		
	0.05 to 0.5 µM	Cc1sc2c(c1C)C(c1ccc(N3CCC4(CCN(CC5CCC(c6ccc([C@@H]7c8ccc(O)cc8CC[C@@H]7c7ccccc7)cc6)CC5)C4)CC3)cc1)=N[C@@H](C)c1nnc(C)n1-2 (stereo partly drawn) [III-191]			< 0.05 µM	0.05 to 0.5 µM		
	0.5 to 2.5 µM	Cc1sc2c(c1C)C(c1ccc(N3CCC(O)(CN4CCN(c5ccc(C6=C(c7ccc(Cl)cc7Cl)CCCc7cc(C(=O)O)ccc76)cc5)CC4)CC3)cc1)=N[C@H](C)c1nnc(C)n1-2 [IV-15]			> 2.5 µM	> 2.5 µM		
	0.05 to 0.5 µM	Cc1sc2c(c1C)C(c1ccc(N3CCC(CN4CCN(c5ccc(C6=C(c7ccc(Cl)cc7Cl)CCCc7cc(C(=O)O)ccc76)cc5)CC4)CC3)cc1)=N[C@@H](C)c1nnc(C)n1-2 [IV-11]			< 0.05 µM	0.5 to 2.5 µM		
	0.05 to 0.5 µM	Cc1sc2c(c1C)C(c1ccc(N3CC(C[C@H]4CC[C@H](CN5CC(c6ccc([C@@H]7c8ccc(O)cc8CC[C@@H]7c7ccccc7)cc6)C5)CC4)C3)cc1)=N[C@@H](C)c1nnc(C)n1-2 [III-233]			< 0.05 µM	0.5 to 2.5 µM		
	< 0.05 µM	Cc1sc2c(c1C)C(c1ccc(C3CN(CCN4CC(COc5ccc([C@@H]6c7ccc(O)cc7CC[C@@H]6c6ccccc6)cc5)C4)C3)cc1)=N[C@@H](C)c1nnc(C)n1-2 [III-95]			< 0.05 µM	0.05 to 0.5 µM		
	< 0.05 µM	Cc1sc2c(c1C)C(c1ccc(N3CC(CC4(O)CN(CC5CN(c6ccc(C7=C(c8ccccc8)CCCc8cc(C(=O)O)ccc87)cc6)C5)C4)C3)cc1)=N[C@@H](C)c1nnc(C)n1-2 [IV-42]			< 0.05 µM	0.05 to 0.5 µM		
	0.05 to 0.5 µM	CCN(CCOCCOCCOCCOCCOCCOCCNC(=O)C[C@@H]1N=C(c2ccc(Cl)cc2)c2c(sc(C)c2C)-n2c(C)nnc21)CCOc1ccc(C(=O)c2c(-c3ccc(O)cc3)sc3cc(O)ccc23)cc1 [I-5, (S)-2-(4-(4-chlorophenyl)-2,3,9-trimethyl-6H-thieno[3,2-f][1,2,4]triazolo[4,3-a][1,4]diazepin-6-yl)-N-(3-ethyl-1-(4-(6-hydroxy-2-(4-hydroxyphenyl)benzo[b]thiophene-3-carbonyl)phenoxy)-6,9,12,15,18,21-hexaoxa-3-azatricosan-23-yl) acetamide]					< 0.05 µM	0.5 to 2.5 µM
	0.05 to 0.5 µM	Cc1sc2c(c1C)C(c1ccc(N3CCN(CC4CCN(c5ccc(C6=C(c7ccc(Cl)cc7Cl)CCCc7cc(C(=O)O)ccc76)cc5)CC4)CC3)cc1)=N[C@@H](C)c1nnc(C)n1-2 [IV-1]			< 0.05 µM	> 2.5 µM		
	< 0.05 µM	Cc1sc2c(c1C)C(c1ccc(N3CC(CC4(F)CCN(CC5CN(c6ccc([C@@H]7c8ccc(O)cc8CC[C@@H]7c7ccccc7)cc6)C5)CC4)C3)cc1)=N[C@@H](C)c1nnc(C)n1-2 [III-203]			< 0.05 µM	0.5 to 2.5 µM		
	0.05 to 0.5 µM	Cc1sc2c(c1C)C(c1ccc(N3CCC(O)(CN4CCN(c5ccc([C@@H]6c7ccc(O)cc7CC[C@@H]6c6ccccc6)cc5)CC4)CC3)cc1)=N[C@@H](C)c1nnc(C)n1-2 [III-118]			< 0.05 µM	0.5 to 2.5 µM		
	0.5 to 2.5 µM	Cc1sc2c(c1C)C(c1ccc(N3CCC(F)(CN4CCC(c5ccc([C@@H]6c7ccc(O)cc7CC[C@@H]6c6ccccc6)cc5)CC4)CC3)cc1)=N[C@@H](C)c1nnc(C)n1-2 [III-144]			0.05 to 0.5 µM	> 2.5 µM		
	< 0.05 µM	COc1cc(N2CCN(CC3(O)CCN(c4ccc(C5=N[C@@H](C)c6nnc(C)n6-c6sc(C)c(C)c65)cc4)CC3)CC2)ccc1[C@@H]1c2ccc(O)cc2CC[C@@H]1c1ccc(F)cc1 (single isomer, unassigned) [III-276]			< 0.05 µM	0.5 to 2.5 µM		
	0.05 to 0.5 µM	Cc1sc2c(c1C)C(c1ccc(CN3CCC4(CC3)CCN(c3ccc([C@@H]5c6ccc(O)cc6CC[C@@H]5c5ccccc5)cc3)CC4)cc1)=N[C@@H](C)c1nnc(C)n1-2 [III-115]			0.05 to 0.5 µM	0.5 to 2.5 µM		
	0.05 to 0.5 µM	Cc1sc2c(c1C)C(c1ccc(N3CCC(O)(CN4CCN(c5ccc([C@H]6c7ccc(O)cc7CC[C@H]6c6ccc(F)cc6)cc5)CC4)CC3)cc1)=N[C@@H](C)c1nnc(C)n1-2 [III-184]			< 0.05 µM	0.05 to 0.5 µM		
	0.05 to 0.5 µM	Cc1sc2c(c1C)C(c1ccc(N3CC(C(=O)N4CCC(c5ccc([C@@H]6c7ccc(O)cc7CC[C@@H]6c6ccccc6)cc5)CC4)C3)cc1)=N[C@@H](C)c1nnc(C)n1-2 [III-139]			0.5 to 2.5 µM	0.5 to 2.5 µM		
	0.05 to 0.5 µM	CC1=C(c2c(F)cc(F)cc2F)C(c2ccc(N3CCN(CC4CCN(c5ccc(C6=N[C@@H](C)c7nnc(C)n7-c7sc(C)c(C)c76)cc5)CC4)CC3)cc2)Oc2ccc(O)cc21 (stereo partly drawn) [V-11]			0.05 to 0.5 µM	0.5 to 2.5 µM		
	0.5 to 2.5 µM	Cc1sc2c(c1C)C(c1ccc(N3CCN(CC4CCN(c5ccc([C@@H]6c7ccc(O)cc7CC[C@@H]6c6ccccc6)cc5)CC4)CC3)cc1)=N[C@H](Cc1ncco1)c1nnc(C)n1-2 [III-1, (5R,6S)-6-phenyl-5-(4-(4-((4-(4-((R)-2,3,9-trimethyl-6-(oxazol-2-ylmethyl)-6H-thieno[3,2-f][1,2,4]triazolo[4,3-a][1,4]diazepin-4-yl)phenyl)piperazin-1-yl)methyl)piperidin-1-yl)phenyl)-5,6,7,8-tetrahydronaphthalen-2-ol]			> 2.5 µM	> 2.5 µM		
	0.05 to 0.5 µM	Cc1sc2c(c1C)C(c1ccc(N3CCC(O)(CN4CCN(c5ccc([C@H]6c7ccc(O)cc7CC[C@H]6c6ccccc6)nn5)CC4)CC3)cc1)=N[C@H](Cc1ncco1)c1nnc(C)n1-2 [III-224]			> 2.5 µM	> 2.5 µM		
	> 2.5 µM	Cc1sc2c(c1C)C(c1ccc(N3CCC(O)(CN4CCN(c5ccc([C@H]6c7ccc(C(=O)O)cc7CC[C@H]6c6ccc(F)cc6F)cc5)CC4)CC3)cc1)=NC(Cc1ncco1)c1nnc(C)n1-2 (stereo partly drawn) [III-213]			> 2.5 µM	> 2.5 µM		
